# From PubChem BioAssay AID179 (DTP/NCI, 2004)
# Where “and” joins values, the source holds several entries; their conditions need not be identical. Equal entries are not always repeated. Calls of active or inactive are those of the source.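 How the source made its calls: active means compounds giving half or more protection of infected cells from virus-caused growth loss, again on retest; inactive means the rest.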 Where a SMILES comes first, the peptide text is derived from it. The star is where a group is joined. Cbz = O=C(OCc1ccccc1)*
# Test system: CEM cells HIV-1 protection, formazan growth assay
# Test: NCI AIDS Antiviral Assay
# Settings: for IC50: measured here: growth of uninfected CEM cells
# How it was run: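 Protection of CEM cells against HIV-1 was scored from cell growth (soluble formazan) across five concentrations, with parallel uninfected cells. Lack of protection may reflect toxicity.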
SMILES,EC50,IC50,outcome
Cc1c(/C=N/NC(=S)Nc2ccccc2)c(=O)n(-c2ccccc2)n1C,> 200 µM,> 200 µM,
NC(=S)Nc1ccc2c(c1)oc1ccccc12,> 200 µM,> 200 µM,
Cc1ccc(NC(=O)CC(=O)n2nc(C)c(N=Nc3ccc(S(=O)(=O)CCOS(=O)(=O)O)cc3)c2C)cc1,> 200 µM,> 200 µM,
c1ccc(SC2CC[C@H]3CCCC[C@H]3O2)cc1 (stereo not given in full),,,inactive
CCOC(=O)CCC(NC(=O)C(CC(=O)OC)NC(=O)OCc1ccccc1)C(=O)NC(CC(=O)OC)C(=O)NC(CCC(=O)OCC)C(=O)NC(CC(=O)OC)C(=O)NC(CCC(=O)OCC)C(=O)NC(CC(=O)OCC)C(=O)OCC (stereo not given) (Cbz-D(OMe)E(OEt)D(OMe)E(OEt)D(OMe)E(OEt)D(OEt)-OEt; configuration not given here),> 200 µM,> 200 µM,
CCOc1ncn(-c2ccc(NC(=S)Nc3cccc(O)c3)cc2)n1,> 200 µM,> 200 µM,
CC(=O)O[C@@H]1CC(C)C2CC2C2=C(C(O)OC2O)[C@@H]1C(C)CCC=C(C)C (stereo not given in full),> 69.2 µM,58.9 µM,
CC1(C)CC(=O)c2c(nc3ccc4ccccc4c3c2-c2ccc(NC(=O)CCCCCCCCC(=O)Nc3ccc(-c4c5c(nc6ccc7ccccc7c46)CC(C)(C)CC5=O)cc3)cc2)C1,> 100 µM,> 100 µM,
CN(C)CCCN1C(=S)N(CCCN(C)C)c2c3ccccc3nc3c([N+](=O)[O-])ccc1c23,0.407 µM,1.07 µM,
Cc1ccc2c(c1)CN(C(=O)CCC(=O)OCc1ccccc1)c1ccc(C)cc1CN2C(=O)CCC(=O)OCc1ccccc1,,,inactive
COC(=O)c1c(O)c(C#N)c2[nH]c3ccccc3n2c1=O,> 100 µM,> 100 µM,
Cc1c(Cl)ccc2c1NC(=O)C2(O)CC(=O)c1cccc2ccccc12 (stereo not given),> 97.7 µM,> 97.7 µM,
C[CH2][Sn]([Cl])([Cl])[CH2]C,,,inactive
Nc1nc(N)c(-c2ccccc2)c(CCC(=O)Nc2ccc(Cl)cc2)n1,> 490 µM,24 µM,
CC(=O)Nc1[nH]c(=O)[nH]c(=O)c1N(C(C)=O)C(C)=O,> 933 µM,> 933 µM,
O=C(CCCNC(=O)OCc1ccccc1)OCc1ccc2c(c1)C(=O)c1ccccc1C2=O,> 200 µM,> 200 µM,
COc1ccc(Nc2ccnc3cc(Cl)ccc23)cc1CCN,> 89.1 µM,> 89.1 µM,
OC1CSCCSCCCSCCSC1,> 126 µM,> 126 µM,
COC(=O)c1c2c(cc3c1CCC3)CCC2,> 200 µM,> 200 µM,
O=C(Nc1cccc(O)c1)C(=O)C(C(=O)c1ccc(Cl)c(Cl)c1)C1OC(=O)c2ccccc21 (stereo not given),> 141 µM,64.6 µM,
CC(=O)N(C)n1cn[n+](CC(=O)OC(C)(C)C)c1,> 200 µM,> 200 µM,
CCOP(=O)(OCC)C1CC(C)OC1=O (stereo not given),,,inactive

SMILES,EC50,IC50,outcome
NS(=O)(=O)c1ccc(N=Cc2cc(Cl)cc(Cl)c2O)cc1,> 200 µM,16.6 µM,
CC1Sc2ccccc2-c2[nH]c3ccccc3c21 (stereo not given),> 200 µM,10.2 µM,
O=C(CN1CCCCC1)c1ccc2[nH]c(=O)oc2c1,> 200 µM,129 µM,
COc1c2c3c4c(c(OC)c(=O)c5c(O)c(Br)c(OC)c(c6c(OC)c(Br)c(O)c(c1=O)c36)c54)C(C(C)=O)=C(C)C2,> 13.8 µM,1.45 µM,
O=C(/C=C/c1ccccc1)c1ccc(Oc2ccccc2)cc1,> 200 µM,23.4 µM,
OC(Cc1cc(CC(O)(C(F)(F)F)C(F)(F)F)nc(CC(O)(C(F)(F)F)C(F)(F)F)c1)(C(F)(F)F)C(F)(F)F,> 200 µM,1.02 µM,
COc1cc2c(oc(=O)c3cc4ccoc4c(OC)c32)c2cccc(O)c12,> 1.45 µM,> 1.45 µM,
NNc1nnc(-c2nnc(NN)o2)o1,> 200 µM,> 200 µM,
Cc1cnoc1NC1=CC(=O)C(=O)c2ccccc21,> 200 µM,26.3 µM,
O=C(CC1(O)C(=O)Nc2c(Cl)cc(Cl)cc21)c1ccc2ccccc2c1 (stereo not given),> 49 µM,20.4 µM,
COc1ccc(C2OC(=O)c3ncccc32)cc1 (stereo not given),> 200 µM,> 200 µM,
COc1cccc(/C(C=O)=C(\Cl)c2ccc(OC)c(OC)c2)c1,> 21.9 µM,11.5 µM,
CC(CC(=O)Nc1ccc(NC(=O)CC(C)N=NC(N)=O)cc1)N=NC(N)=O (stereo not given),> 129 µM,> 129 µM,
Cc1ccc(/C=C2/N=C(N/N=C\C(O)C(O)C(O)C(O)CO)NC2=O)cc1 (stereo not given),> 200 µM,123 µM and > 200 µM and 132 µM,
Fc1c(F)c(F)c(CSc2nc3ccccc3[nH]2)c(F)c1F,> 200 µM,145 µM,
COC(=O)CC(NC(=O)OCc1ccccc1)C(C(=O)OCc1ccccc1)C1(C)OCCO1 (stereo not given),> 50.1 µM,34.7 µM,
Cc1cn(C2CC(COCc3ccccc3)N(CCO)O2)c(=O)[nH]c1=O (stereo not given),> 200 µM,> 200 µM,
O=C(O)C(Oc1ccc2cc(Br)ccc2c1)C(=O)O,,,inactive
COc1ccc(C2=C(Cl)c3cc(OC)c(OC)cc3C2Cl)cc1 (stereo not given),,,inactive
COC1OC(CO)C(N=C(C)C)C1O (stereo not given),> 200 µM,> 200 µM,
FC(F)(F)c1ccc(C2SCc3nc4ccccc4n32)cc1 (stereo not given),,,inactive
C=C(C(=C)N1N=NC2C3CCC(C3)C21)N1N=NC2C3CCC(C3)C21 (stereo not given),> 2.34 µM,> 2.34 µM,

SMILES,EC50,IC50,outcome
c1ccc2c3c([nH]c2c1)CCc1cncnc1-3,> 200 µM,12 µM,
CCOC(=O)c1c(O)cn2c1[nH]c1cccc3cccc2c31,> 100 µM,25.7 µM,
CCOC(=O)C#CCCOC1CCCCO1 (stereo not given),> 138 µM,112 µM,
COc1cc(N=Nc2ccccc2)cc(/C=N\[N-]C(N)=S)c1[O-].COc1cc(N=Nc2ccccc2)cc(/C=N\[N-]C(N)=S)c1[O-].[Fe+4],> 26.3 µM,> 26.3 µM,
CCOC(=O)Nc1cc2c(c(N)n1)N=C(CN(C)c1ccccc1)CN2,> 34.7 µM,0.0741 µM,
O=C1CSC(c2c[nH]c3ccccc23)N1c1ccccc1[N+](=O)[O-] (stereo not given),> 389 µM,> 389 µM,
NCC(=O)Nc1ccc(S(=O)(=O)O)c2cc(S(=O)(=O)O)cc(S(=O)(=O)O)c12,> 200 µM,> 200 µM,
Cc1ccc(SS(=O)(=O)c2ccc(C)cc2)cc1,> 38 µM,6.61 µM,
CSc1nc(NC2OC(COC(C)=O)C(OC(C)=O)C(OC(C)=O)C2OC(C)=O)c(-c2csc(N)n2)c(=O)n1C (stereo not given),,,inactive
COC1OC2COc3ccccc3OC2C(NC#N)C1OC (stereo not given),> 145 µM,28.8 µM,
Cc1c(C#N)c(=N)oc2ccccc12,> 200 µM,115 µM,
[Pt].c1ccc([PH+](CC[PH+](CC[PH+](c2ccccc2)c2ccccc2)CC[PH+](c2ccccc2)c2ccccc2)c2ccccc2)cc1,> 21.9 µM,0.417 µM,
CS(=O)(=O)NC12CCC(c3ccccc31)c1ccccc12,> 200 µM,> 200 µM,
CC1(C)COC2(c3ccccc3)N(c3ccccc3)C(=O)ON12 (stereo not given),> 200 µM,> 200 µM,
CC(O)C1(CNc2cc(Cl)nc(N)n2)CCCCC1 (stereo not given),> 200 µM,85.1 µM,
N#Cc1cc2ccncc2c2ccccc12,> 33.1 µM,24 µM,
Cc1ccc(C(=O)Nc2ccc(CP(=O)(O)O)cc2)cc1NC(=O)c1cccc(N)c1,> 200 µM,> 200 µM,
CCCNC1(C(N)=O)CCN(Cc2ccccc2)CC1,> 200 µM,> 200 µM,
COc1ccc(-n2nc3c(N)nnc-3nc2-c2ccccc2)cc1,> 4.07 µM,> 4.07 µM,
C[N+](C)(C)/N=C/c1ccc(O)c(O)c1,> 200 µM,> 200 µM,
COc1cc(/C=C2\SC(=S)N(C=C3C(=O)NC(=O)NC3=O)C2=O)cc(OC)c1OC,> 200 µM,23.4 µM,
O=C1CS(=O)c2ccccc2N1 (stereo not given),> 372 µM,> 372 µM,

SMILES,EC50,IC50,outcome
O=C(O)c1nc2ccc(C(F)(F)F)cc2nc1NCc1ccc(F)cc1,> 200 µM,15.8 µM,
O=C(NNc1ccccc1)C(O)C(O)C(O)C(O)C(O)CO (stereo not given),,,inactive
CCCCCCCCCCOCC(COCCOCC(COCCCCCCCCCC)OCCCS(=O)(=O)O)OCCCS(=O)(=O)O (stereo not given),> 204 µM,107 µM,
CCOC(=O)[C@@]12C[C@](/C=C/OC)(O[Si](C)(C)C)[C@@]13c1cc(OC)c(OC)cc1CCN3C(=O)C2=O,> 200 µM,> 200 µM,
Fc1ccc(NC(=S)Nc2ccccn2)cc1,> 158 µM,129 µM,
Cc1ccc2nc(NC(=O)C(=O)C(C(=O)c3ccc4ccccc4c3)C3OC(=O)c4ccccc43)sc2c1 (stereo not given),> 50.1 µM,25.7 µM,
CC(=O)/C(=C/c1ccc(Br)cc1)C(=O)c1ccccc1,,,inactive
O=C1NC2(CCCCC2)N=C2C(Cl)CCCC12Cl (stereo not given),> 200 µM,> 200 µM,
COc1cc(C(=O)Oc2ccc3c(c2)OCO3)cc(OC)c1OC,> 200 µM,> 200 µM,
O=C(NC1CCC(CC2CCC(NC(=O)c3cc(O)c(O)c(O)c3)CC2)CC1)c1cc(O)c(O)c(O)c1 (stereo not given),> 100 µM,10.5 µM,
COc1cc(/C=C2/SC(c3ccccc3)N(Cc3ccccc3)C2=O)cc(OC)c1OC (stereo not given),> 200 µM,25.7 µM,
CCOC(=O)N1CCc2cc(OC)c(OC)c3c2c1cc1cc(OC)c(OC)cc13,,,inactive
CC(=O)OC12/C(=N/O)CCCCCC1c1ccccc12 (stereo not given),> 200 µM,> 200 µM,
Clc1cc(N/N=C(\c2ccccc2)c2ccccn2)ncn1,> 0.2 µM,0.0631 µM,
O=C1NC(N/N=C\c2ccccc2)=N/C1=C/c1ccccc1,> 200 µM,35.5 µM,
Brc1cccc(N=NN2CCCC2)c1,> 200 µM,36.3 µM,
N#C/C(=C/NC(=S)NCc1ccccc1)C(N)=O,> 200 µM,> 200 µM,
Cc1cc(C)nc(NS(=O)(=O)c2ccc(NC(=O)c3ccc4nc5ccccc5c(Nc5ccc(S(=O)(=O)Nc6nc(C)cc(C)n6)cc5)c4c3)cc2)n1,> 200 µM,29.5 µM,
COCCCN1C(=O)C2c3[nH]c4ccccc4c3C3CCC(C(C)(C)C)CC3C2C1=O (stereo not given),> 200 µM,31.6 µM,
O=C(O)/C(Cl)=C(\Cl)C(=O)Nc1ccccc1,,,inactive
